The results in this text go back to US20260274892A1, “MACROCYCLIC BROAD SPECTRUM ANTIBIOTICS” (RQx Pharmaceuticals, Inc., priority 2017, published 2026).

The assay deals with Escherichia coli ATCC 25922. In words: Minimum inhibitory concentration (MIC), CLSI broth micro-dilution, E. coli. The conditions noted are these: Escherichia coli. It counts as cell-based. The method in brief:
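Colonies grown 20 h at 35° C on Trypticase Soy agar (MRSA) or Luria agar (E. coli) were suspended in cation-adjusted Mueller Hinton broth with 0.002% Tween-80. Suspensions were added at OD600 0.0005 to 10-point twofold compound dilutions, then incubated 22 h at 35° C.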

Where [1] appears, read: ATCC25922, 22 h, Table 7, cation adjusted Mueller Hinton Broth + 0.002% Tween-80, 35° C.

Regarding `Cc1nc(-c2ccc(C(C)(C)C)cc2)nc(C)c1C(=O)N[C@@H](CNS(N)(=O)=O)C(=O)N(C)[C@@H]1C(=O)N[C@@H](C)C(=O)N[C@H](C(=O)NCC#N)Cc2ccc(OCCN)c(c2)-c2cc1cc(OCCN)c2O` (racemic) [Compound 584, rac-(8S,11S,14S)-3,17-bis(2-aminoethoxy)-N-(cyanomethyl)-18-hydroxy-11-methyl-14-[methyl-[rac-(2S)-2-[[2-(4-tert-butylphenyl)-4,6-dimethyl-pyrimidine-5-carbonyl]amino]-3-(sulfamoylamino)propanoyl]amino]-10,13-dioxo-9,12-diazatricyclo[13.3.1.12,6]icosa-1(18),2(20),3,5,15(19),16-hexaene-8-carboxamide], under setting [1], the minimal inhibitory concentration (MIC) was 0.5 µM.

Consider `COc1c(OCCN)cc2cc1-c1cc(ccc1OCCN)C[C@@H](C(=O)NCC#N)NC(=O)[C@H](C)NC(=O)[C@H]2N(C)C(=O)[C@H](CNS(N)(=O)=O)NC(=O)c1c(C)nc(-c2ccc(C(C)(C)C)cc2)nc1C` (racemic) [Compound 585, rac-(8S,11S,14S)-3,17-bis(2-aminoethoxy)-N-(cyanomethyl)-18-methoxy-11-methyl-14-[methyl-[rac-(2S)-2-[[2-(4-tert-butylphenyl)-4,6-dimethyl-pyrimidine-5-carbonyl]amino]-3-(sulfamoylamino)propanoyl]amino]-10,13-dioxo-9,12-diazatricyclo[13.3.1.12,6]icosa-1(18),2(20),3,5,15(19),16-hexaene-8-carboxamide], for which, under “ATCC25922, Table 7, cation adjusted Mueller Hinton Broth + 0.002% Tween-80, 35° C., 22 hours”, the MIC is 0.38 µM.

Consider `COc1c(OC[C@H](O)CN)cc2cc1-c1cc(ccc1OC[C@H](O)CN)C[C@@H](C(=O)NCC#N)NC(=O)[C@H](C)NC(=O)[C@H]2N(C)C(=O)[C@H](CCN)NC(=O)c1c(C)nc(-c2ccc(C(C)(C)C)cc2)nc1C` (racemic) [Compound 586, rac-(8S,11S,14S)-N-(cyanomethyl)-18-methoxy-11-methyl-14-[methyl-[rac-(2S)-4-amino-2-[[2-(4-tert-butylphenyl)-4,6-dimethyl-pyrimidine-5-carbonyl]amino]butanoyl]amino]-10,13-dioxo-3,17-bis[rac-(2R)-3-amino-2-hydroxy-propoxy]-9,12-diazatricyclo[13.3.1.12,6]icosa-1(18),2(20),3,5,15(19),16-hexaene-8-carboxamide], for which the MIC under setting [1] stood at 0.19 µM.

As to `Cc1nc(-c2ccc(C(C)(C)C)cc2)nc(C)c1C(=O)N[C@@H](CCN)C(=O)N(C)[C@@H]1C(=O)N[C@@H](C)C(=O)N[C@H](C(=O)NCC#N)Cc2ccc(OC[C@H](O)CN)c(c2)-c2cc1cc(OCCN)c2O` (racemic) [Compound 587, rac-(8S,11S,14S)-17-(2-aminoethoxy)-N-(cyanomethyl)-18-hydroxy-11-methyl-14-[methyl-[rac-(2S)-4-amino-2-[[2-(4-tert-butylphenyl)-4,6-dimethyl-pyrimidine-5-carbonyl]amino]butanoyl]amino]-10,13-dioxo-3-[rac-(2R)-3-amino-2-hydroxy-propoxy]-9,12-diazatricyclo[13.3.1.12,6]icosa-1(18),2(20),3,5,15(19),16-hexaene-8-carboxamide], the minimum inhibitory concentration (MIC) under setting [1] stood at 0.094 µM.

With `Cc1nc(-c2ccc(C(C)(C)C)cc2)nc(C)c1C(=O)N[C@@H](CCN)C(=O)N(C)[C@@H]1C(=O)N[C@@H](C)C(=O)N[C@H](C(=O)NCC#N)Cc2ccc(OCCN)c(c2)-c2cc1cc(OC[C@H](O)CN)c2O` (racemic) [Compound 588, rac-(8S,11S,14S)-3-(2-aminoethoxy)-N-(cyanomethyl)-18-hydroxy-11-methyl-14-[methyl-[rac-(2S)-4-amino-2-[[2-(4-tert-butylphenyl)-4,6-dimethyl-pyrimidine-5-carbonyl]amino]butanoyl]amino]-10,13-dioxo-17-[rac-(2R)-3-amino-2-hydroxy-propoxy]-9,12-diazatricyclo[13.3.1.12,6]icosa-1(18),2(20),3,5,15(19),16-hexaene-8-carboxamide], the minimal inhibitory concentration (MIC) under setting [1] came to 0.094 µM.
